Article PMC10350923, “In Vitro and In Vivo Biological Activities of Dipicolinate Oxovanadium(IV) Complexes” (Journal of Medicinal Chemistry, 2023)
Values joined by “and” are separate entries in the source; they are usually repeats but may differ in a detail not shown here. Identical values can stand only once. “Also recorded” adds a separate entry of the source. Like-named read-outs stand apart in the source and are kept apart here.

Tests used:
[1] = Stability and solubility in RPMI culture medium, UV-vis; format: physicochemical; conditions: UV-vis at 0, 24, 48 h
[2] = system: chick chorioallantoic membrane; experiment: Ex ovo chick chorioallantoic membrane (CAM) assay, angiogenesis; format: in vivo, chicken; conditions: chick embryo CAM; for anti-/pro-angiogenic potential, newly formed blood vessels, 48 h: IC50, 48 h
Text: The ex ovo CAM assay was used to evaluate the role of vanadium complexes in the process of angiogenesis. CAM is a chicken extraembryonic membrane and is often used to study the process of angiogenesis in vivo as it has a high density of blood and lymphatic vessels.[120] This assay consists of analyzing certain vascularized areas of the chorioallantoic membrane of a chicken embryo. Initially, o-rings are placed covering those membrane vascularized areas being then exposed to the complexes. Pictures are then taken at 0, 24, and 48 h after exposure to the complexes and the number of blood vessels present at each hour are counted and compared. The results can be observed in Figure 15.
Ex-ovo Chick Chorioallantoic Membrane (CAM) assay
The ex-ovo chorioallantoic membrane (CAM) assay was performed in order to evaluate the angiogenic potential of vanadium complexes, as already described in literature11–13. Firstly, chicken embryos were […]
concentration of each complex dissolved in PBS 1x was placed in the centre of O-rings. Beside each complex, DMSO 0.1% (v/v) was used as a control and complex distribution in chicken embryos was always performed in a different order. The embryos were incubated for 48 h at 37 °C and images were […]
Newly formed blood vessels were later manually counted, via ImageJ software.
The ex-ovo CAM assay fulfils the Directive 2010/63/ EU of the European Parliament for protection of animal models for scientific purposes.
All data are presented as Mean ± SEM from at least two independent experiments unless otherwise specified. One-way ANOVA or Student’s t-test were used to determine statistical significance (p < 0.05) using the GraphPad Prism 8 software (GraphPad Software, San Diego, CA, USA).

[3] = system: A2780 (ovarian carcinoma cell line); experiment: MTS cell viability assay, A2780; format: cell-based, human; conditions: 48 h of exposure, mean ± SEM
HCT116-DoxR cells [4] = experiment: Cell internalization by ICP-AES; format: cell-based, human; conditions: 3 h exposure to 10x IC50, ICP-AES
[5] = biological target: T1, BSA (bovine serum albumin) (Bos taurus, UniProt P02769); experiment: BSA binding, UV-vis and fluorescence spectroscopy; conditions: for BSA fluorescence with increasing complex concentrations: BSA 20 μM, complexes 10-100 μM, pH 7.0, 24 h, 37 °C; for interaction with BSA protein: UV-vis and fluorescence spectroscopy
T1 construct: I (1–195), II (196–383), and III (384–583)
T1 sequence (P02769 25-607): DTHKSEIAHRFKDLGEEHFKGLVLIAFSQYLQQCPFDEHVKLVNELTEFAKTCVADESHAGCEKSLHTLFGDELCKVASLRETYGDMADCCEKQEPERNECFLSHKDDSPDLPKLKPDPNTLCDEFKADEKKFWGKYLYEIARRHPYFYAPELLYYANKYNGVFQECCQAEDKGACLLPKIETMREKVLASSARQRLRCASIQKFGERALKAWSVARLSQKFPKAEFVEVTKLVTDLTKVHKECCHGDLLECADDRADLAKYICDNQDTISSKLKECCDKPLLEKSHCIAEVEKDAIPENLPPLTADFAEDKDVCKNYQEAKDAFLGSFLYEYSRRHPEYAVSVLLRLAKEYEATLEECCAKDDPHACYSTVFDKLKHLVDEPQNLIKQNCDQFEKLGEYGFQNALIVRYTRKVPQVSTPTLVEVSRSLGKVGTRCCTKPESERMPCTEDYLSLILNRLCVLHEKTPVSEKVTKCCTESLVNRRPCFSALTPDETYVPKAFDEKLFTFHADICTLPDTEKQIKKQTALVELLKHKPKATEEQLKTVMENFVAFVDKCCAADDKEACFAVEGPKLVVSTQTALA

fibroblasts = experiment: Cell migration (wound healing) assay; format: cell-based, human; conditions: 24 h, IC50
Experimental: In the wound healing assay, a region without cells is generated, being then exposed to the compounds, and the cell migration is analyzed after 24 h, to determine the cells’ ability to proliferate and refill the gap previously formed (Figure 14).[116]
(§1) finishing the 48 h period.
(§2) Attune® Cytometric software.
(§3) Butyl hydroperoxide) were used as controls.
(§4) Cells were later analysed
(§5) (double thymidine block).
(§6) After this, the pellet was resuspended in
Control solutions were also prepared, namely a
DMSO only. […] The UV-Vis spectra were […]

caspase-8 = experiment: Caspase-8 activity, IETD-pNA cleavage; format: cell-based, human; conditions: HCT116-DoxR, 48 h; complexes at IC50, cisplatin 5 μM
Experimental: Since caspase-8 is an initiator caspase of the extrinsic apoptotic pathway, its activity was evaluated after HCT116-DoxR cells were exposed to complexes 5 and 8 (Figure 8).
The chromogenic substrate IETD-pNA, which results from the conjugation between the peptide IETD (Ile-Glu-Thr-Asp) and the chromophore p-nitroanilide (pNA), is cleaved by caspase-8 and releases pNA, which can be detected by measuring absorbance at 400 nm.[99] Therefore, if complexes 5 and 8 induce cell death through the extrinsic apoptotic pathway, there is an increase in absorbance at 400 nm compared to the control sample, corresponding to an increase in caspase-8 activity that is translated into the cleavage of the substrate IETD-pNA (Figure 8).
(§7) Antibody; Cell Signalling Technology, USA).
(§8) Assay Kit (Abnova Corporation, Walnut, CA, USA).
(§9) vanadium complexes at its IC50 concentrations.
(§10) Cells were then incubated
(§11) Flow Cytometer (Life Technologies, Carlsbad, USA).
(§12) HCT116-DoxR cell line was cultivated

HCT116-DoxR cells [6] = experiment: Autophagy induction, Green Detection Reagent, flow cytometry; conditions: 48 h, complexes at IC50, cisplatin 5 μM, Dox 6 μM
[7] = n-octanol/PBS buffer partition coefficient, shake-flask, UV-vis; conditions: room temperature
Experimental: The lipophilicity of V(IV) complexes was investigated using the classical shake-flash method at room temperature in the two-phase system of immiscible solvents n-octanol/PBS buffer.[69],[70] The transfer of V(IV) compounds from the aqueous environment to the organic phase was monitored by UV–vis spectroscopy.
The n-octanol/PBS buffer partition coefficients (logP) were determined by shake-flash approach, and
the transfer of V(IV) compounds from the aqueous environment to the organic phase was monitored
by UV-Vis spectroscopy5,6. Solutions of 1–10 of concentrations in the range 10-100 M were prepared
in PBS buffer saturated with n-octanol from the freshly-prepared stock solution in DMSO (5mM or 50
mM), and their UV-Vis spectra were recorded. The solution of 1–10 in aqueous buffer (3 ml) were
mixed with n-octanol saturated with pH 7.4 aqueous buffer (3 ml), and the obtained mixtures were
stirred in a mechanical shaker for 30 min. The mixtures were allowed to stand at room temperature for
24 h, and after this time, the aqueous phases were separated, and the concentrations of 1–10 were
determined by measuring their UV-Vis spectra. For each complex, the highest energy absorption band was taken into consideration to determine the sample concentration.

HCT116-DoxR cells [8] = experiment: Alexa Fluor 488-annexin V/PI apoptosis assay, flow cytometry; format: cell-based, human; conditions: 48 h; for increase of percentage of apoptotic cells normalized to DMSO: IC50; for early apoptosis / late apoptosis / necrosis / percentage of apoptosis (total) / viable cells: complexes at IC50, cisplatin 5 μM, Dox 6 μM
BAX = experiment: Western blot, BAX expression; format: cell-based, human; conditions: HCT116-DoxR, 48 h; for BAX/BCL-2 ratio normalized to DMSO control: IC50; for BAX protein expression vs DMSO control: IC50, normalized to β-actin
HCT116-DoxR spheroids = experiment: MTS assay in 3D spheroids; format: cell-based, human; conditions: HCT116-DoxR spheroids 6- to 8-day-old, 48 h
cleaved PARP1 = experiment: Western blot, cleaved PARP1 expression; format: cell-based, human; conditions: HCT116-DoxR, 48 h, IC50
HCT116-DoxR cells [9] = experiment: ROS production, H2DCF-DA, flow cytometry; format: cell-based, human; conditions: 48 h, IC50
Experimental: Thus, the level of ROS present in HCT116-DoxR cells after their exposure to vanadium complexes was quantified (Figure 10). The probe 2′,7′-dichlorohydrofluorescein diacetate (H2DCF-DA), which diffuses into cells and is deacetylated by cellular esterases resulting in a nonfluorescent compound, was used. Inside the cell, this molecule is oxidized by ROS and then originates the fluorescent molecule 2′,7′-dichlorofluorescein (DCF) that can be detected by flow cytometry.[103]
as §1, §2, §3, §4, §5, §6
Control solutions were also prepared, namely a […]

[10] = system: normal human primary dermal fibroblasts; experiment: MTS cell viability assay, fibroblasts; conditions: read-out: IC50 fibroblasts; 48 h of exposure, MTS, mean ± SEM
Experimental: (§13) To assess the cytotoxicity of vanadium complexes in tumor and healthy cells, the MTS assay, a colorimetric method that allows the quantification of viable cells present in solution,[71] was performed.
Cell culture and maintenance
(§14) The A2780 cancer cell line (ovarian carcinoma) was purchased from Sigma-Aldrich (Madrid, Spain)
(§15) while HCT116 cancer cell line (colorectal carcinoma) and the normal human primary dermal
(§16) fibroblasts were obtained from American Type Culture Collection (ATCC®, Manassas, VA, USA).
(§17) HCT116 Dox-resistant cell line (HCT116-DoxR) was derived from HCT116 parental cells, as
(§18) All cells were cultured in Dulbecco’s modified Eagle medium (DMEM), except the A2780 cell line
(§19) which was cultured in RPMI (Roswell Park Memorial Institute) medium. Both media were
(§20) supplemented with 10% (v/v) fetal bovine serum (FBS) and 1% (v/v) of a Pen/Strep
(§21) (Penicillin/Streptomycin) solution. HCT116-DoxR cell medium was additionally supplemented with
(§22) All media and supplements were purchased from Thermo Fischer Scientific (Waltham, Massachusetts, USA).
(§23) (SANYO CO2 Incubator, Electric Biomedical Co., Osaka, Japan).
(§24) HCT116, HCT116-DoxR and A2780 cancer cell lines and normal human primary fibroblasts were
(§25) used in cellular viability assays. Cells were seeded in a density of 0.75×10^5 cells/mL into 96 well-
(§26) After the 24 h of incubation, complexes were
(§27) weight and immediately solubilized in 100% (v/v) DMSO and then, diluted for the final concentration
(§28) with cell culture medium. The medium in each 96 well-plates will be replaced by fresh medium
(§29) containing each vanadium complex (concentrations ranging from 0.01 µM to 50 µM). Culture medium
(§30) with 0.1% (v/v) DMSO and 0.4 µM Dox were used as negative and positive controls, respectively.

HCT116-DoxR cells [11] = experiment: Cell cycle progression, PI, flow cytometry; conditions: HCT116-DoxR, 3, 9, 24, 32 h; complexes at IC50, cisplatin 5 μM, Dox 6 μM
BCL-2 = experiment: Western blot, BCL-2 expression; format: cell-based, human; conditions: HCT116-DoxR, 48 h, IC50, normalized to β-actin
[12] = system: HCT116-DoxR (doxorubicin-resistant colorectal carcinoma cell line); experiment: MTS cell viability assay, HCT116-DoxR;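 note: MTS colorimetric quantification of viable cells, with loss of viability tracked as complex concentration rises, in DMEM-grown HCT116-DoxR, a line whose resistance involves P-glycoprotein efflux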
Experimental: as §13
Cell culture and maintenance
as §14, §15, §16, §17, §18, §19, §20, §21, §22, §23, §24, §25, §26, §27, §28, §29, §30

[13] = system: HCT116 (colorectal carcinoma cell line); experiment: MTS cell viability assay, HCT116; format: cell-based, human; conditions: 48 h of exposure, mean ± SEM
HCT116-DoxR cells [14] = experiment: Mitochondrial membrane potential, JC-1, flow cytometry; format: cell-based, human; conditions: 48 h, complexes at IC50, cisplatin 5 μM, Dox 6 μM
Text: The use of the fluorescent probe JC-1 (5,5,6,6′-tetrachloro-1,1′,3,3′ tetraethylbenzimidazolcarbocyanine iodide) allows the evaluation of ΔΨm, as the aggregation of the probe changes whether the mitochondrial membrane is hyperpolarized or depolarized.[95],[96] In healthy cells with high mitochondrial potential, JC-1 enters and accumulates inside mitochondria, where it forms complexes known as J-aggregates, emitting red fluorescence. However, in cells with a loss of ΔΨm, JC-1 is unable to remain in the mitochondria and exits to the cytoplasm, accumulating in its monomeric form and emitting green fluorescence. Thus, the ratio of the red/green fluorescence intensities can be used to indicate polarization (ratio > 1) or depolarization (ratio < 1) of the mitochondrial membrane (Figure 7).[94],[95]
as §7, §8, §9, §10, §11, §12

[15] = read-out: IC50 2D, HCT116-DoxR 2D culture, 48 h
[16] = read-out: IC50 HCT116-DoxR, 48 h of exposure, MTS, mean ± SEM

SMILES	stability in RPMI culture medium [1]	anti-/pro-angiogenic potential, newly formed blood vessels, 48 h [2]	IC50 [3] [nM]	Concentration in cells (HCT116-DoxR cells [4]) [µM]	BSA fluorescence with increasing complex concentrations [5]	interaction with BSA protein [5]	cell migration (wound remission) (fibroblasts)	caspase-8 activity vs 0.1% DMSO (caspase-8)	increase of autophagic vesicles over the control (HCT116-DoxR cells [6]) [fold]	log P [7]	increase of percentage of apoptotic cells normalized to DMSO (HCT116-DoxR cells [8]) [fold]	early apoptosis (HCT116-DoxR cells [8]) [%]	late apoptosis (HCT116-DoxR cells [8]) [%]	necrosis (HCT116-DoxR cells [8]) [%]	percentage of apoptosis (total) (HCT116-DoxR cells [8])	viable cells (HCT116-DoxR cells [8]) [%]	IC50 (HCT116-DoxR spheroids) [nM]	ROS production, increase over the DMSO control (HCT116-DoxR cells [9]) [fold]	IC50 [10] [nM]	IC50 [12, 15] [nM]	also measured
COc1ccnc2c1ccc1c(OC)ccnc12.O=C1[O][V](=[O])[O]C(=O)c2cccc1n2 [complex 5, [VO(dipic)(4,7-(CH3O)2-phen)]]	no structural changes	no anti-/pro-angiogenic potential	1300 ± 10	1.590	high decrease in BSA fluorescence	capable of interacting	do not promote cell migration	higher level of caspase-8	~2.3	0.55	2.5	59.4 ± 3.6	11.5 ± 5.0	0.8 ± 0.6	about 70%	28.3 ± 3.5	3500 ± 200	2.5	3100 ± 70	200 ± 100	Internalized percentage (HCT116-DoxR cells [4]): 98.55% and ~100%; BAX/BCL-2 ratio normalized to DMSO control (BAX): ~1; BAX protein expression vs DMSO control (BAX): increased expression; increase in expression of cleaved PARP1 vs 0.1% DMSO (cleaved PARP1): 5 fold; cell cycle arrest / cytostatic effect (HCT116-DoxR cells [11]): no cell cycle arrest; BCL-2 protein expression vs DMSO control (BCL-2): increased expression; IC50 [12, 16]: 200 ± 100 nM; IC50 [13]: 1800 ± 40 nM
O=C1[O][V](=[O])[O]C(=O)c2cccc1n2.c1ccc(-c2ccnc3c2ccc2c(-c4ccccc4)ccnc23)cc1 [complex 6, [VO(dipic)(4,7-Ph2-phen)]]	no spectral changes over time	no longer present; also recorded: no anti-/pro-angiogenic potential	200 ± 90	1.672	high decrease in BSA fluorescence	capable of interacting	do not promote cell migration	not detected	~2.3	0.57	2.5	57.7 ± 5.8	13.4 ± 5.9	1.2 ± 0.9	about 70%	27.7 ± 7.9	3100 ± 420	2.6	4000 ± 50	200 ± 50	solubility in RPMI culture medium over time [1]: loss of solubility over time; anti-angiogenic potential, newly formed blood vessels, 24 h ([2]; IC50, 24 h): some anti-angiogenic potential; Internalized percentage (HCT116-DoxR cells [4]): 98.32% and ~100%; JC-1 red/green fluorescence intensity ratio normalized to DMSO (HCT116-DoxR cells [14]): ~0.69; BAX/BCL-2 ratio normalized to DMSO control (BAX): ~3; BAX protein expression vs DMSO control (BAX): increase; increase in expression of cleaved PARP1 vs 0.1% DMSO (cleaved PARP1): 8 fold; cell cycle arrest / cytostatic effect (HCT116-DoxR cells [11]): no cell cycle arrest; BCL-2 protein expression vs DMSO control (BCL-2): decrease; IC50 [12, 16]: 200 ± 50 nM; IC50 [13]: 900 ± 30 nM
O=C1[O][V](=[O])[O]C(=O)c2cccc1n2.c1cnc2c(c1)ccc1cccnc12 [complex 8, [VO(dipic)(phen)]]	no spectral changes over time	no anti-/pro-angiogenic potential	2100 ± 30	6.705	high decrease in BSA fluorescence	capable of interacting	do not promote cell migration	higher level of caspase-8	~2.3	0.40	1.7	44.8 ± 6.2	4.5 ± 2.1	0.9 ± 0.6	about 50%	49.8 ± 6.0	11700 ± 620	2.4	8600 ± 20	1300 ± 40	IC50 [12, 16]: 1300 ± 40 nM; IC50 [13]: 3700 ± 10 nM
